Test results taken from the SangsterLogP compilation.

assay: method code SF-HPLC, from DOI: 10.1002/jps.2600810814, PMID: 1403725

SMILES | logP
CCN(N=O)C(C)C | 1
CN(C)N=O | -0.38
CCCCN(CCC)N=O | 2.13
CCN(CC)N=O | 0.61
CC(C)CN(CC(C)C)N=O | 2.39
CN(N=O)C(C)(C)C | 0.86
CCCCN(C)N=O | 1.12
CCCN(C)N=O | 0.61
CCCCN(CCCC)N=O | 2.73
CC(C)N(N=O)C(C)C | 1.48
CCCN(CCC)N=O | 1.61
CCCCN(CC)N=O | 1.67
CCN(C)N=O | 0.08
CCCCCN(CCCCC)N=O | 3.91
